Laboratory results taken from patent US7348427B2, “Antipathogenic benzamide compounds” (Genesoft Pharmaceuticals, Inc., priority 2001, dated 2008).
Values after ≈ are worked out from the molar mass of the structure shown.

Tests used:
[1] = system: Enterococcus faecium (ATCC 51559, a vancomycin resistant strain (VRE)); experiment: MIC, NCCLS broth microdilution assay; type: cell-based; details: D = E. faecium ATCC 51559
How it was run: (§1)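 NCCLS-standard broth microdilution gives the MIC values here. The antifungal determination used a clinical microbiology manual method instead.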

[2] = system: Staphylococcus epidermidis (ATCC 12228); experiment: MIC, NCCLS broth microdilution assay; type: cell-based; details: G = S. epidermidis ATCC 12228
How it was run: as §1

[3] = system: Bacillus cereus (ATCC 11778); experiment: MIC, NCCLS broth microdilution assay; type: cell-based; details: A = B. cereus ATCC 11778; for MIC: Bacillus cereus, ATCC11778, read-out: Minimum Inhibitory Concentration (MIC)
How it was run: as §1

[4] = system: Staphylococcus aureus (ATCC 27660, a methicillin resistant strain (MRSA)); experiment: MIC, NCCLS broth microdilution assay; type: cell-based; details: F = S. aureus ATCC 27660; for MIC: Staphylococcus aureus, read-out: Minimum Inhibitory Concentration (MIC)
How it was run: as §1

E. faecalis ATCC 29212 = experiment: MIC, NCCLS broth microdilution assay; type: cell-based, Enterococcus faecalis; details: C = E. faecalis ATCC 29212; for MIC: Enterococcus faecalis, ATCC29212, read-out: Minimum Inhibitory Concentration (MIC)
How it was run: (§2)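 Broth microdilution per NCCLS M7-A4 (1997) guidelines; MIC recorded as minimal inhibitory concentration.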

[5] = system: Candida albicans (ATCC 38247); experiment: Antifungal MIC assay; type: cell-based; details: B = C. albicans ATCC 38247; for MIC: Candida albicans, ATCC38247, read-out: Minimum Inhibitory Concentration (MIC)
How it was run: as §1

S. pneumoniae ATCC 49619 = experiment: MIC, NCCLS broth microdilution assay; type: cell-based, Streptococcus pneumoniae; details: H = S. pneumoniae ATCC 49619; for MIC: Streptococcus pneumoniae, ATCC49619, read-out: Minimum Inhibitory Concentration (MIC)
How it was run: as §2

[6] = system: Staphylococcus aureus (ATCC 13709, a methicillin sensitive strain (MSSA)); experiment: MIC, NCCLS broth microdilution assay; type: cell-based; details: E = S. aureus ATCC 13709; for MIC: Staphylococcus aureus, read-out: Minimum Inhibitory Concentration (MIC)
How it was run: as §1

[7] = system: Streptococcus pneumoniae (ATCC 51422, a penicillin resistant strain (PRSP)); experiment: MIC, NCCLS broth microdilution assay; type: cell-based; details: I = S. pneumoniae ATCC 51422
How it was run: as §1

MIC (S. pneumoniae ATCC 49619) [µg/mL] | MIC [6] [µg/mL] | MIC [3] [µg/mL] | MIC [4] [µg/mL] | MIC (E. faecalis ATCC 29212) [µg/mL] | MIC [5] [µg/mL] | SMILES | Minimum Inhibitory Concentration (MIC) [1] | Minimum Inhibitory Concentration (MIC) [2] | Minimum Inhibitory Concentration (MIC) [3] | Minimum Inhibitory Concentration (MIC) [4] | Minimum Inhibitory Concentration (MIC) (E. faecalis ATCC 29212) | Minimum Inhibitory Concentration (MIC) [5] | Minimum Inhibitory Concentration (MIC) (S. pneumoniae ATCC 49619) | Minimum Inhibitory Concentration (MIC) [6] | Minimum Inhibitory Concentration (MIC) [7]
– | – | – | – | – | – | Cn1cc(NC(=O)c2cc(NC(=O)c3cc(NC(=O)c4cc(NC(=O)c5ccc(F)cc5F)c[nH]4)cn3C)cn2C)cc1C(=O)NCCN1CCOCC1 [Compound A-2] | + (+ = 12 ≦ MIC ≦ 32) | + (+ = 12 ≦ MIC ≦ 32) | +++ (+++ = MIC ≦ 4) | + (+ = 12 ≦ MIC ≦ 32) | ++ (++ = 4 < MIC < 12) | >32 µg/mL | – | – | –
– | – | – | – | – | – | Cn1cc(NC(=O)c2cc(NC(=O)c3cc(NC(=O)c4ccc(F)cc4F)c[nH]3)cn2C)cc1C(=O)NCCc1ccncc1 [Compound A-7] | +++ (+++ = MIC ≦ 4) | +++ (+++ = MIC ≦ 4) | +++ (+++ = MIC ≦ 4) | +++ (+++ = MIC ≦ 4) | +++ (+++ = MIC ≦ 4) | >32 µg/mL | +++ (+++ = MIC ≦ 4) | +++ (+++ = MIC ≦ 4) | +++ (+++ = MIC ≦ 4)
– | – | – | – | – | – | Cn1cc(NC(=O)c2cc(NC(=O)c3cc(NC(=O)c4ccc(F)cc4F)c[nH]3)cn2C)cc1C(=O)NCCN1CCC(F)(F)CC1 [Compound A-12] | +++ (+++ = MIC ≦ 4) | +++ (+++ = MIC ≦ 4) | +++ (+++ = MIC ≦ 4) | + (+ = 12 ≦ MIC ≦ 32) | +++ (+++ = MIC ≦ 4) | >32 µg/mL | +++ (+++ = MIC ≦ 4) | +++ (+++ = MIC ≦ 4) | +++ (+++ = MIC ≦ 4)
– | – | – | – | – | – | CN(C)CCCNC(=O)c1cc(NC(=O)c2cc(NC(=O)c3cc(NC(=O)c4ccc(Cl)cc4F)c[nH]3)cn2C)cn1C [Compound A-13] | + (+ = 12 ≦ MIC ≦ 32) | +++ (+++ = MIC ≦ 4) | +++ (+++ = MIC ≦ 4) | +++ (+++ = MIC ≦ 4) | ++ (++ = 4 < MIC < 12) | +++ (+++ = MIC ≦ 4) | +++ (+++ = MIC ≦ 4) | +++ (+++ = MIC ≦ 4) | +++ (+++ = MIC ≦ 4)
– | – | – | – | – | – | CCN(CC)CCNC(=O)c1cc(NC(=O)c2cc(NC(=O)c3cc(NC(=O)c4ccc(Cl)cc4F)c[nH]3)cn2C)cn1C [Compound A-16] | +++ (+++ = MIC ≦ 4) | +++ (+++ = MIC ≦ 4) | +++ (+++ = MIC ≦ 4) | +++ (+++ = MIC ≦ 4) | +++ (+++ = MIC ≦ 4) | +++ (+++ = MIC ≦ 4) | +++ (+++ = MIC ≦ 4) | +++ (+++ = MIC ≦ 4) | +++ (+++ = MIC ≦ 4)
– | – | – | – | – | – | Cn1cc(NC(=O)c2cc(NC(=O)c3ccc(Cl)cc3F)c[nH]2)cc1C(=O)NCCN1CCCCC1 [Compound A-18] | +++ (+++ = MIC ≦ 4) | +++ (+++ = MIC ≦ 4) | +++ (+++ = MIC ≦ 4) | +++ (+++ = MIC ≦ 4) | +++ (+++ = MIC ≦ 4) | >32 µg/mL | +++ (+++ = MIC ≦ 4) | +++ (+++ = MIC ≦ 4) | +++ (+++ = MIC ≦ 4)
– | – | – | – | – | – | Cn1cc(NC(=O)c2cc(NC(=O)c3ccc(Cl)cc3F)c[nH]2)cc1C(=O)NCCN1CCSCC1 [Compound A-21] | +++ (+++ = MIC ≦ 4) | +++ (+++ = MIC ≦ 4) | +++ (+++ = MIC ≦ 4) | +++ (+++ = MIC ≦ 4) | +++ (+++ = MIC ≦ 4) | >32 µg/mL | +++ (+++ = MIC ≦ 4) | +++ (+++ = MIC ≦ 4) | +++ (+++ = MIC ≦ 4)
– | – | – | – | – | – | Cn1cc(NC(=O)c2cc(NC(=O)c3ccc(F)cc3)cn2C)cc1C(=O)NCCN1CCOCC1 [Compound B-36] | + (+ = 12 ≦ MIC ≦ 32) | – | >32 µg/mL | >32 µg/mL | >32 µg/mL | >32 µg/mL | + (+ = 12 ≦ MIC ≦ 32) | >32 µg/mL | >32 µg/mL
– | – | – | – | – | – | Cc1cc(NC(=O)c2cc(NC(=O)c3cc(NC(=O)c4ccc(F)cc4F)c[nH]3)cn2CCN2CCOCC2)sn1 [Compound D-4] | – | – | >32 µg/mL | >32 µg/mL | >32 µg/mL | >32 µg/mL | >32 µg/mL | >32 µg/mL | +++ (+++ = MIC ≦ 4)
– | – | – | – | – | – | CN(C)CCCn1cc(NC(=O)c2cc(NC(=O)c3ccc(Cl)cc3F)cn2C)cc1C(=O)Nc1cc(C(=O)NCCN2CCOCC2)n(C)c1 [Compound D-25] | – | – | +++ (+++ = MIC ≦ 4) | +++ (+++ = MIC ≦ 4) | +++ (+++ = MIC ≦ 4) | + (+ = 12 ≦ MIC ≦ 32) | +++ (+++ = MIC ≦ 4) | +++ (+++ = MIC ≦ 4) | –
– | – | – | – | – | – | CN(C)CCCn1cc(NC(=O)c2cc(NC(=O)c3ccc(Cl)cc3F)c[nH]2)cc1C(=O)Nc1cc(C(=O)NCCN2CCOCC2)n(C)c1 [Compound D-26] | – | – | +++ (+++ = MIC ≦ 4) | +++ (+++ = MIC ≦ 4) | +++ (+++ = MIC ≦ 4) | + (+ = 12 ≦ MIC ≦ 32) | +++ (+++ = MIC ≦ 4) | +++ (+++ = MIC ≦ 4) | –
– | – | – | – | – | – | Cn1cc(NC(=O)c2cc(NC(=O)c3cc(NC(=O)c4ccc(Cl)cc4)cn3C)cn2CCN2CCOCC2)cc1C(=O)NCCN1CCOCC1 [Compound D-27] | – | – | ++ (++ = 4 < MIC < 12) | + (+ = 12 ≦ MIC ≦ 32) | +++ (+++ = MIC ≦ 4) | >32 µg/mL | +++ (+++ = MIC ≦ 4) | + (+ = 12 ≦ MIC ≦ 32) | –
– | – | – | – | – | – | Cc1cc(NC(=O)c2cc(NC(=O)c3cc(NC(=O)c4ccc(Cl)cc4)cn3C)cn2CCN2CCOCC2)sn1 [Compound D-28] | – | – | + (+ = 12 ≦ MIC ≦ 32) | + (+ = 12 ≦ MIC ≦ 32) | + (+ = 12 ≦ MIC ≦ 32) | >32 µg/mL | +++ (+++ = MIC ≦ 4) | + (+ = 12 ≦ MIC ≦ 32) | –
– | – | – | – | – | – | Cn1cc(NC(=O)c2cc(NC(=O)c3ccc(F)cc3F)no2)cc1C(=O)NCCN1CCOCC1 [Compound E-3] | – | – | + (+ = 12 ≦ MIC ≦ 32) | + (+ = 12 ≦ MIC ≦ 32) | + (+ = 12 ≦ MIC ≦ 32) | >32 µg/mL | + (+ = 12 ≦ MIC ≦ 32) | >32 µg/mL | –
≤ 4 | ≤ 4 | 12 to 32 (≈ 19.2 to 51.2 µM) | ≤ 4 | ≤ 4 | > 32 | Cn1cc(NC(=O)c2cc(NC(=O)c3cc(NC(=O)c4ccc(F)cc4F)no3)cn2C)cc1C(=O)NCCN1CCOCC1 [Compound E-8] | – | – | – | – | – | – | – | – | –
12 to 32 (≈ 18.7 to 49.9 µM) | > 32 | > 32 | > 32 | 12 to 32 (≈ 18.7 to 49.9 µM) | > 32 | Cn1cc(NC(=O)c2cc(NC(=O)c3cnc(NC(=O)c4ccc(F)cc4F)s3)cn2C)cc1C(=O)NCCN1CCOCC1 [Compound E-9] | – | – | – | – | – | – | – | – | –
